Measurements from a melting point compilation (Tetko et al.).

Conditions: a range is the spread between reports

SMILES | melting point [°C]
O=C1c2ccccc2C(=O)N1CCBr | 82 to 82.5
COc1cc(Cl)ccc1C(=O)O | 146 to 147
O=C(Cl)N(c1ccccc1)c1ccccc1 | 83 to 84
CCOC(=O)/C=C/C(=O)OCC | 0 to 2
Cc1cccc(C)c1C | -25.4 to -25
Nc1ncccn1 | 125 to 128
OCc1cccc(O)c1 | 71 to 73
CC(C)CC(C)(C)C | -107
O=C(n1ccnc1)n1ccnc1 | 118 to 119
OCCc1c[nH]c2ccccc12 | 58 to 59
Cc1ccc2c(c1N)C(=O)c1ccccc1C2=O | 205 to 206
COC(F)(F)C(Cl)Cl | -36 to -35
Nc1cccc2c1C(=O)c1ccccc1C2=O | 250 to 254
c1ccc(P(c2ccccc2)c2ccccc2)cc1 | 80 to 80.5
C1OCOCO1 | 60.2 to 61
O=c1cc(-c2ccccc2)oc2ccccc12 | 97 to 100
C=CCC | -185
Clc1cccnc1Cl | 66 to 67
CCc1ccc(N)cc1 | -5 to -4.8
Brc1ccc(I)cc1 | 91 to 92
Nc1ccccc1 | -6.3 to -6
O=C1CC(=O)NC(=S)N1 | 234 to 235
CCCC1CCCCC1 | -95 to -94.9
COC(=O)c1ccccc1OC(C)=O | 51.5 to 52

SMILES | melting point [°C]
CC(C)C(C)(C)C(C)C | -102
COc1ccc(O)cc1OC | 81 to 83
Cc1ccc(N)cc1N | 97 to 99
COc1cc(C#N)ccc1O | 86 to 87
C[Si]1(C)O[Si](C)(C)O[Si](C)(C)O[Si](C)(C)O1 | 17.5 to 18
CC(=O)Nc1cccc(F)c1 | 83 to 88
Nc1ccc(Cl)c([N+](=O)[O-])c1 | 100 to 103
CCC(C)(CO)CO | 40.3 to 44
O=C(O)c1cccc([N+](=O)[O-])c1 | 141 to 142
CC(=CC(=O)O)C(=O)O | 90 to 93.5
Cc1cc(O)c(C(C)C)cc1C1(c2cc(C(C)C)c(O)cc2C)OC(=O)c2ccccc21 | 250 to 253
c1ccc(-c2ccnc3c2ccc2c(-c4ccccc4)ccnc23)cc1 | 218 to 220
CCCCCCCCCCCCN(C)C | -20 to -15
Cc1cc(C)[nH]n1 | 107 to 108
Clc1cc(Cl)nc(Cl)n1 | 22.5 to 23
O=C(O)c1cccc(Cl)c1Cl | 168 to 169
N#Cc1ccccc1 | -13 to -12.7
NC(=O)c1ccncc1 | 156 to 157
CNc1ccccc1[N+](=O)[O-] | 35 to 38
O=[N+]([O-])c1ccc2c3c(cccc13)CC2 | 103 to 104
COC(C(=O)c1ccccc1)c1ccccc1 (stereo not given) | 47 to 49.5
NC(=O)c1cccc([N+](=O)[O-])c1 | 142 to 143
Cc1cc(C(=O)O)ccc1N | 170
CC(C)C1CCCC1 | -111

SMILES | melting point [°C]
c1c[nH]cn1 | 90 to 90.5
Nc1ccc(Br)cc1[N+](=O)[O-] | 112
COc1cc(OC)cc(C(=O)O)c1 | 184 to 186
Nc1ccc(F)c([N+](=O)[O-])c1 | 96 to 97.5
O=C(O)c1cccc(O)c1 | 202 to 203
CCCS | -113
NC(=O)c1ccc([N+](=O)[O-])cc1Cl | 170 to 172
COc1cc(C=CC(=O)c2ccccc2O)ccc1O | 126 to 129
ClC1=C(Cl)[C@]2(Cl)[C@@H]3[C@@H]4C[C@@H]([C@H]5O[C@@H]45)[C@@H]3[C@@]1(Cl)C2(Cl)Cl | 175 to 176
O=C(O)c1ccccc1C(F)(F)F | 109 to 111
O=C1CCC(=O)N1Cl | 148 to 150
COC(=O)c1cc2ccccc2cc1O | 73 to 75.5
CCCOC(=O)c1ccc(O)cc1 | 96 to 97
CCC1(C(C)C)C(=O)NC(=O)NC1=O | 198 to 203
CCOC(=O)NCCOc1ccc(Oc2ccccc2)cc1 | 53 to 53.5
CCCCCCCCCCCCCC(=O)O | 53.9 to 55.1
BrCC(Br)CBr | 16 to 17
CCCCNC(=S)NCCCC | 64 to 66
O[Si](c1ccccc1)(c1ccccc1)c1ccccc1 | 152 to 155
CCCCCC(C)CC (stereo not given) | -108
CCC(C(C)C)C(C)C | -122
Cc1cc([N+](=O)[O-])ccc1Cl | 42.5 to 43
BrCc1ccc2ccccc2c1 | 53 to 56
CCS(=O)(=O)CC | 72 to 73.5

SMILES | melting point [°C]
FC(F)(F)c1ccccc1Cl | -7.4 to -6
CC(C)O | -90 to -88
O=C(O)c1ccc(O)cc1O | 225 to 226
O=C1CCCN1 | 23 to 24
CC1=CC(=O)CC(C)(C)C1 | -8.1 to -8
Cc1ccccc1C(=O)O | 104 to 108
COC(=O)c1cccc(C(=O)OC)c1 | 67.5 to 69
COc1ccc(CC#N)cc1OC | 62.8 to 64
CN1C(=O)OC(C)(C)C1=O | 46 to 47
O=C(O)Cc1cccc(C(F)(F)F)c1 | 77 to 78
O=Cc1ccccc1C=O | 56 to 56.5
CCCCCCCCCC(=O)O | 31 to 32
O=C(CBr)c1ccccc1 | 49 to 50.5
CCCCCCCCCCCCBr | -10 to -9.5
O=Cc1c(Cl)cccc1Cl | 70.5 to 71.5
Oc1ccc2ccccc2c1-c1c(O)ccc2ccccc12 | 216 to 217
CC(C)CC1CCCC1 | -115
C=C(C)C(C)C | -157
CC(C)CC(=O)CC(C)C | -42 to -41.5
C=Cc1ccc(O)cc1 | 73 to 73.5
CC(=O)OCc1ccccc1 | -51.3 to -51
CC(C)[C@@H]1CC[C@@H](C)C[C@H]1O | 42 to 44
COc1cccc(OC)c1O | 54 to 56.5
Cc1cc(C)nc(N)n1 | 152 to 153

SMILES | melting point [°C]
COc1cc(Cl)ccc1O | 16.5 to 17
COC(=O)c1ccccc1 | -15 to -12
N#Cc1ccccc1Br | 55 to 55.5
CCCCCCCCN | -1 to 0
Clc1ccc(Cl)c(I)c1 | 21 to 22
O=C1OC2(OC=C(c3ccccc3)C2=O)c2ccccc21 (stereo not given) | 154 to 157
COc1ccc(N)cc1Cl | 50 to 52.5
c1ccc2c(c1)Nc1ccccc1S2 | 184 to 188
C#CCCC(C)C | -125 to -124
OC(c1ccccc1)c1ccc(Cl)cc1 (stereo not given) | 60 to 60.8
O=C(O)CCl | 61.5 to 63
Brc1cc(Br)c(Br)cc1Br | 178 to 182
O=C(O)Cc1cccc2ccccc12 | 130 to 135
CCCc1ccc(C(=O)O)cc1 | 142 to 143
c1ccc2cnccc2c1 | 26 to 26.5
CCCCCCCC(=O)OCC | -47 to -43.1
CC(C)C(=O)OC(=O)C(C)C | -56 to -53.5
Clc1cccc(Cl)c1Cl | 52.6 to 55
O=C(O)CCCCCBr | 34 to 35
BrCBr | -53 to -52
Oc1ccncc1 | 145 to 150
O=C(O)C=Cc1ccc(Br)cc1 | 262 to 263
NNC(=O)NN | 154 to 158
Cc1cc(N)nc(C)n1 | 183 to 185
